Among the data in paper PMC12029531, “Selenium in Action: Exploring the Biological Wonders of Hydroselenite Salts” (Molecules, 2025) are MIC, MBC and IC50 values, retold here.

One assay relates to Bacillus sphaericus. As to the kind of experiment: MIC and MBC, broth micro-dilution. The settings on record: B. sphaericus; for MIC: 24 h. The assay is classed as cell-based. (In general: In broth dilution the organism is exposed to a series of concentrations in liquid medium.)
In assay [1] the test system is Staphylococcus epidermidis. As to the kind of experiment: MIC and MBC, broth micro-dilution. It is filed as cell-based. The settings on record: S. epidermidis; for MIC: 24 h.
Another assay relates to DU-145 (prostate cancer). As to the kind of experiment: MTT antiproliferative assay. The note with it: DU-145, 48 h, mean ± SD. The assay is classed as cell-based, human.
Assay [2] has as its system U251 (glioblastoma cancer). As to the kind of experiment: MTT antiproliferative assay. It is filed as cell-based, human. The settings on record: U251, 48 h, mean ± SD. (Formazan colour is commonly taken as a measure of viable cells.)
A further assay relates to Klebsiella pneumoniae. As to the kind of experiment: MIC and MBC, broth micro-dilution. The assay is classed as cell-based. The note with it: K. pneumoniae; for MIC: 24 h.
The test system of a further assay is Escherichia coli. As to the kind of experiment: MIC and MBC, broth micro-dilution. The assay is classed as cell-based. The settings on record: E. coli; for MIC: 24 h.
In another assay the test system is Pseudomonas aeruginosa. As to the kind of experiment: MIC and MBC, broth micro-dilution. It is filed as cell-based.
Assay [3] concerns normal human dermal fibroblasts (NHDF). As to the kind of experiment: MTT assay in non-malignant cells. The assay is classed as cell-based. The note with it: 48 h, mean ± SD.
For another assay, the system named is Staphylococcus aureus. As to the kind of experiment: MIC and MBC, broth micro-dilution. The assay is classed as cell-based. The settings on record: S. aureus; for MIC: 24 h.
In assay [4] the test system is Panc-1 (pancreatic cancer). As to the kind of experiment: MTT antiproliferative assay. The assay is classed as cell-based, human. The settings on record: mean ± SD.
For assay [5], the system named is MCF-7 (human breast adenocarcinoma cells). As to the kind of experiment: MTT antiproliferative assay. The assay is classed as cell-based. The note with it: MCF-7, 48 h, mean ± SD.
In another assay the test system is U251 cell line. As to the kind of experiment: Cytotoxicity of selenous acid (MTS assay, Figure S60). It is filed as cell-based, human. The note with it: U251, 48 h, 1–100 µM. The source says:
The striking difference in the potency of Se salts as compared to their corresponding parent compounds raises a question: Could the release of the Se salt part of the molecules be solely responsible for these activities? Nevertheless, after thoroughly analyzing the in vitro antiproliferative activities and the structure of the reported compounds, our initial hypothesis is that the antitumor activity of the new selenium salts might not be due to the release of the Se inorganic, as evinced by the following four experimental outcomes: (1) All the salt compounds should have shown similar efficacy at the same molar concentrations if the toxicity was solely due to the release of the Se salt part. […] To confirm this hypothesis and due to the scarce number of reported antitumor activities of selenous acid, we evaluated H2SeO3 in the U251 cell line in our experimental setup. […] Since the IC50 value of selenous acid is in the range of what is observed for SLT-1-6 (Table 3), the increased antiproliferative activity of the salts might or might not be linked to the release of the Se salt fragment of the molecule. […] Further studies are needed to fully characterize and understand the behavior of these selenous salts.
Figure S58. Dose-response curves of SLT-6 in all the cell lines present in the NCI panel.
Figure S59. […]
Cell viability was assessed using an MTS assay. […]

Another assay has as its system Panc-1 cells. The settings on record: several experimental conditions; cited from earlier work.
Where [6] appears, read: Lysinibacillus sphaericus, read-out: MIC.
Setting [7] is: Lysinibacillus sphaericus, read-out: MBC.
The mark [8] stands for this setting: Staphylococcus epidermidis, read-out: MIC.
Setting [9] is: Staphylococcus epidermidis, read-out: MBC.
[10] abbreviates: Klebsiella pneumoniae, read-out: MBC.
[11] abbreviates: Klebsiella pneumoniae, read-out: MIC.
Where [12] appears, read: Escherichia coli, read-out: MIC.
Setting [13] is: Escherichia coli, read-out: MBC.
Where [14] appears, read: Pseudomonas aeruginosa; P. aeruginosa; read-out: MBC.
Where [15] appears, read: Staphylococcus aureus, read-out: MIC.
Setting [16] is: Staphylococcus aureus, read-out: MBC.
Where [17] appears, read: Pseudomonas aeruginosa; P. aeruginosa, 24 h; read-out: MIC.

In brackets after ≈: the same amount, converted by molar mass. Where two headings read alike, the source gives them in different places.

Take `COc1cc(Cc2cnc(N)nc2N)cc(OC)c1OC` [AB-2, trimethoprim]: the MIC (as a rule, the least concentration at which growth counts as inhibited) in the assay with Bacillus sphaericus (setting [6]) was 1.56 µg/mL (≈ 5.37 µM); in assay [1] (setting [8]) it was more than 200 µg/mL; with Klebsiella pneumoniae (setting [11]), 3.13 µg/mL (≈ 10.8 µM); in the assay on Escherichia coli (setting [12]) it was 1.56 µg/mL (≈ 5.37 µM); in the assay on Pseudomonas aeruginosa (Pseudomonas aeruginosa, 24 h, P. aeruginosa, 24 h; read-out: MIC), 50 µg/mL (≈ 172 µM); in the assay with Staphylococcus aureus (setting [15]), 1.56 µg/mL (≈ 5.37 µM). The MBC (in general, the smallest concentration meeting the test's criterion for killing) was 6.25 µg/mL (≈ 21.5 µM) in the assay on Bacillus sphaericus (setting [7]); more than 200 µg/mL in [1] (setting [9]); 12.5 µg/mL (≈ 43.1 µM) in the assay on Klebsiella pneumoniae (setting [10]); 6.25 µg/mL (≈ 21.5 µM) in the assay with Escherichia coli (setting [13]); more than 200 µg/mL with Pseudomonas aeruginosa (setting [14]); 3.13 µg/mL (≈ 10.8 µM) in the assay with Staphylococcus aureus (setting [16]). For the same compound, the IC50 (in general, the midpoint of a concentration-inhibition curve) is more than 100 µM in the assay on DU-145 (prostate cancer); more than 100 µM in assay [2]; 6.47 ± 1.79 µM in assay [3] (Homo sapiens); more than 100 µM in assay [4] (Homo sapiens, PANC-1, 48 h); more than 100 µM in [5].
For `Nc1ccc(S(=O)(=O)c2ccc(N)cc2)cc1` [AB-3, dapsone], the MBC (with Bacillus sphaericus; in assay [1]; in the assay on Klebsiella pneumoniae; in the assay on Escherichia coli; in the assay with Pseudomonas aeruginosa (P. aeruginosa); against Staphylococcus aureus) was more than 200 µg/mL each time. The MIC is more than 200 µg/mL in the assay with Bacillus sphaericus; more than 200 µg/mL in assay [1]; more than 200 µg/mL in the assay with Klebsiella pneumoniae; more than 200 µg/mL in the assay on Escherichia coli; more than 200 µg/mL against Pseudomonas aeruginosa (P. aeruginosa, 24 h); more than 200 µg/mL in the assay with Staphylococcus aureus. The IC50 in the assay with DU-145 (prostate cancer) was more than 100 µM; in assay [2], more than 100 µM; in assay [3] it was more than 100 µM; in assay [4] (Homo sapiens, PANC-1, 48 h), more than 100 µM; in [5], more than 100 µM.
As to `Nc1ccc(S(=O)(=O)Nc2ncccn2)cc1` [AB-4, sulfadiazine], the MIC in the assay with Bacillus sphaericus (setting [6]) is more than 200 µg/mL; in assay [1], more than 200 µg/mL; in the assay with Klebsiella pneumoniae (setting [11]), more than 200 µg/mL; in the assay with Escherichia coli (setting [12]), more than 200 µg/mL; against Pseudomonas aeruginosa (P. aeruginosa, 24 h), 50 µg/mL (≈ 200 µM); with Staphylococcus aureus (setting [15]), more than 200 µg/mL. In addition, the MBC (with Bacillus sphaericus (setting [7]); in assay [1] (setting [9]); in the assay with Klebsiella pneumoniae (setting [10]); in the assay with Escherichia coli (setting [13]); in the assay on Pseudomonas aeruginosa (setting [14]); in the assay with Staphylococcus aureus (setting [16])) was more than 200 µg/mL in each case. Also, the IC50 in the assay on DU-145 (prostate cancer) is more than 100 µM; in [2] it was more than 100 µM; in assay [3], more than 100 µM; in [4] (Panc-1, 48 h) it was more than 100 µM; in assay [5], more than 100 µM.
As for `NNC(=O)c1ccncc1` [AB-5, isoniazid], the MIC (with Bacillus sphaericus (setting [6]); in assay [1] (setting [8]); in the assay on Klebsiella pneumoniae (setting [11]); with Escherichia coli (setting [12]); with Pseudomonas aeruginosa (setting [17]); in the assay on Staphylococcus aureus (setting [15])) was more than 200 µg/mL each time. Besides, the MBC (in the assay with Bacillus sphaericus (setting [7]); in assay [1] (setting [9]); in the assay on Klebsiella pneumoniae (setting [10]); with Escherichia coli (setting [13]); in the assay with Pseudomonas aeruginosa (setting [14]); in the assay on Staphylococcus aureus (setting [16])) was more than 200 µg/mL throughout. For the same compound, the IC50 in the assay on DU-145 (prostate cancer) is 99.92 ± 0.2 µM; in [2], more than 100 µM; in [3] it was 41.2 ± 12.1 µM; in assay [4] (Homo sapiens, PANC-1, 48 h), more than 100 µM; in [5], more than 100 µM.
On to `CNC(C)C1CCC(N)C(OC2C(N)CC(N)C(OC3OCC(C)(O)C(NC)C3O)C2O)O1` (stereo not drawn) [AB-6, gentamicin], for which the MIC was 0.2 µg/mL (≈ 0.419 µM) with Bacillus sphaericus (setting [6]); 0.39 µg/mL (≈ 0.817 µM) in [1]; 1.56 µg/mL (≈ 3.27 µM) in the assay with Klebsiella pneumoniae (Klebsiella pneumoniae); 25 µg/mL (≈ 52.3 µM) in the assay on Escherichia coli (setting [12]); 6.56 µg/mL (≈ 13.7 µM) in the assay with Pseudomonas aeruginosa (setting [17]); 25 µg/mL (≈ 52.3 µM) with Staphylococcus aureus (setting [15]). Moreover, the MBC in the assay on Bacillus sphaericus (setting [7]) is 0.78 µg/mL (≈ 1.63 µM); in assay [1], 0.39 µg/mL (≈ 0.817 µM); in the assay with Klebsiella pneumoniae, 3.13 µg/mL (≈ 6.55 µM); in the assay on Escherichia coli (setting [13]), 25 µg/mL (≈ 52.3 µM); in the assay on Pseudomonas aeruginosa (setting [14]), 12.5 µg/mL (≈ 26.2 µM); with Staphylococcus aureus, 50 µg/mL (≈ 105 µM). In addition, the IC50 is more than 100 µM in the assay on DU-145 (prostate cancer); more than 100 µM in assay [2]; more than 100 µM in assay [3]; more than 100 µM in assay [4] (Panc-1, 48 h); more than 100 µM in assay [5].
Turning to `O=[Se](O)O` [H2SeO3, selenous acid], the MBC against Bacillus sphaericus is 200 µg/mL (≈ 1550 µM); in assay [1] it was 200 µg/mL (≈ 1550 µM); against Klebsiella pneumoniae it was 200 µg/mL (≈ 1550 µM); against Escherichia coli it was more than 200 µg/mL; in the assay with Pseudomonas aeruginosa (P. aeruginosa), more than 200 µg/mL; in the assay on Staphylococcus aureus it was 200 µg/mL (≈ 1550 µM). In addition, the MIC is 100 µg/mL (≈ 775 µM) against Bacillus sphaericus; 100 µg/mL (≈ 775 µM) in [1]; 100 µg/mL (≈ 775 µM) with Klebsiella pneumoniae; 200 µg/mL (≈ 1550 µM) in the assay on Escherichia coli; 200 µg/mL (≈ 1550 µM) with Pseudomonas aeruginosa (P. aeruginosa, 24 h); 100 µg/mL (≈ 775 µM) with Staphylococcus aureus. Also, 1.04 µM corresponded to half-maximal inhibition in the assay on U251 cell line (IC50).
For `O=[Se]([O-])[O-].[Na+].[Na+]` [sodium selenite], in the assay with Panc-1 cells, the IC50 entry is given as “low micromolar range”.
